Numbered stars: 1 amine (or outer) side, 2 acyl side, 3 side chain; on linkers, the order of the positions; unused ones are H or OH. Bridge positions count the residues as written; N and C are the ends. Square brackets hold non-standard residues; d marks the D form. Peptide text beside a SMILES is read from it. X1 = CN1C[C@H](CSCCN(CCSC[C@@H]2C[C@@H]3c4cccc5[nH]cc(c45)C[C@H]3N(C)C2)[C@H](CCCCN[*:2])C(=O)[*:1])C[C@@H]2c3cccc4[nH]cc(c34)C[C@H]21; Phe(4-F) = N[C@@H](Cc1ccc(F)cc1)C(=O)O
Legend:
hDRD2 [1] = biological target: T1, hDRD2 (Homo sapiens, UniProt P14416); test: biochemical; format: binding; set-up: expressed in transfected cells; host or cells: CHO-K1, pcDNA3.1/GS, zeocin-selected clonal line; membranes
T1 sequence (P14416 whole entry): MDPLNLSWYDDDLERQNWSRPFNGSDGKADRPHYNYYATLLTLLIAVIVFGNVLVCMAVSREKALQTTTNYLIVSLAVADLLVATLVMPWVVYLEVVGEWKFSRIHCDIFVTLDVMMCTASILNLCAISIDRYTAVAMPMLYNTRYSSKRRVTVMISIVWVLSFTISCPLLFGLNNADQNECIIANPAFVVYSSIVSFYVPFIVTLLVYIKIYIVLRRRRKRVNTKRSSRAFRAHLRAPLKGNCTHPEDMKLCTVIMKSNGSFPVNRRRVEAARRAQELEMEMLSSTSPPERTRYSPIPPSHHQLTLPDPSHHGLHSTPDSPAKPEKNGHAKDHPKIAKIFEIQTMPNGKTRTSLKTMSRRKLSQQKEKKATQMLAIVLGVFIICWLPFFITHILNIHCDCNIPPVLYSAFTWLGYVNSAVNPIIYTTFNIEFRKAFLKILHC

hDRD2 [2] = biological target: T1, hDRD2; test: cell-based; set-up: host or cells: 'Cells expressing hDRD2'; settings: for Emax: read-out: hDRD2 %Emax ± SEM
Experimental: (§1) The ability of select compounds according to the present invention to activate hSSTR2 and hDRD2 was determined by the intracellular calcium mobilization assay using FLIPR Calcium 4 assay kit (Molecular Devices).
(§2) Cells expressing hSSTR2 or hDRD2 were plated in 384-well microplates in tissue culture media and incubated for 16-24 hours at 37°C in a humidified atmosphere with 5% CO2. Medium was replaced by loading buffer containing Hank's buffered saline, 20 mM HEPES, 2.5 mM probenecid and Calcium 4 dye, and the plates were incubated at 37°C for 60 minutes.

hSSTR2 [3] = biological target: T2, hSSTR2 (Homo sapiens, UniProt P30874); test: Intracellular calcium mobilization assay (FLIPR Calcium 4), hSSTR2; format: cell-based;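 further: agonist activity measured in cells expressing hSSTR2, seeded in 384-well plates, loaded with Calcium 4 dye, read-out as rise in intracellular calcium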
T2 construct: host or cells: 'Cells expressing hSSTR2'
T2 sequence (P30874 whole entry): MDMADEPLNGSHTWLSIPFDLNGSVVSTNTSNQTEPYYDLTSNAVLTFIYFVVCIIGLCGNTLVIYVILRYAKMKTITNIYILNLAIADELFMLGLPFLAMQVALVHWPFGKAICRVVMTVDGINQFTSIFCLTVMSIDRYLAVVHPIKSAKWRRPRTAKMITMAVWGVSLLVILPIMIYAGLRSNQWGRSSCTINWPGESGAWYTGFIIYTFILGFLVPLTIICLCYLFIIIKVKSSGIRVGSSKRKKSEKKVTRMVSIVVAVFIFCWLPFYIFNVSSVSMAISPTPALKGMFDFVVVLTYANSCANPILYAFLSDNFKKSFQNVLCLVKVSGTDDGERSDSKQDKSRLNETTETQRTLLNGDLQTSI
Experimental: as §1, §2

hSSTR2 [4] = biological target: T2, hSSTR2; test: Somatostatin receptor radioligand binding assay (hSSTR2);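 further: radioligand displacement on membranes of CHO-K1 cells stably transfected with human SSTR2, specific binding taken as total minus binding left with 1000 nM SRIF-14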
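Wherever Emax is given: agonist activity at human DRD2 in DRD2-expressing cells, read as intracellular calcium mobilization with a FLIPR Calcium 4 fluorescent dye.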

CC(=O)N(CCCN[C@@H]1CCCCNC(=O)[C@H](Cc2ccc(F)cc2)NC(=O)[C@H]([C@@H](C)O)NC(=O)[C@H](CCCCN)NC(=O)[C@@H](Cc2c[nH]c3ccccc23)NC(=O)[C@H](Cc2ccccc2)NC(=O)[C@H](Cc2ccccc2)NC(=O)[C@H](CCCNC(=N)N)NC1=O)C[C@@H]1C[C@@H]2c3cccc4[nH]cc(c34)C[C@H]2N(C)C1 [Compound 29A, 3-[N-acetyl-(D-6-methyl-8β-ergolinylmethyl)]-aminopropionyl-psi(CH2NH)-cyclo(DLys-Arg-Phe-Phe-DTrp-Lys-Thr-4FPhe)]
Ki (hDRD2 [1]): 46.8 ± 7.4 nM
EC50 (hDRD2 [2]): 62.7 ± 14.8 nM
Emax (hDRD2 [2]): 82.8 ± 6.7%
EC50 (hSSTR2 [3]): 8.2 ± 0.7 nM
Ki (hSSTR2 [4]): 0.13 nM

C[C@@H](O)[C@@H]1NC(=O)[C@H](CCCCN)NC(=O)[C@@H](Cc2c[nH]c3ccccc23)NC(=O)[C@H](Cc2ccccc2)NC(=O)[C@H](Cc2ccccc2)NC(=O)[C@H](CCCNC(=N)N)NC(=O)[C@H](NCCCS(=O)(=O)C[C@@H]2C[C@@H]3c4cccc5[nH]cc(c45)C[C@H]3N(C)C2)CCCCNC(=O)[C@H](Cc2ccc(F)cc2)NC1=O [Compound 48, (D-6-methyl-8β-ergolinylmethyl)-sulfonylpropyl-cyclo(DLys-Arg-Phe-Phe-DTrp-Lys-Thr-4FPhe)]
Ki (hDRD2 [1]): 19.4 ± 2.8 nM
EC50 (hDRD2 [2]): 78.3 ± 15.2 nM
Emax (hDRD2 [2]): 76.5 ± 2.8%
EC50 (hSSTR2 [3]): 23.6 ± 7.9 nM
Ki (hSSTR2 [4]): 0.25 ± 0.1 nM

C[C@@H](O)[C@@H]1NC(=O)[C@H](CCCCN)NC(=O)[C@@H](Cc2c[nH]c3ccccc23)NC(=O)[C@H](Cc2ccncc2)NC(=O)[C@H](Cc2ccccc2)NC(=O)[C@H](CCCNC(=N)N)NC(=O)[C@H](NC[C@H](CCCCNC(=O)C[S+]([O-])C[C@@H]2C[C@@H]3c4cccc5[nH]cc(c45)C[C@H]3N(C)C2)NC(=O)C[S+]([O-])C[C@@H]2C[C@@H]3c4cccc5[nH]cc(c45)C[C@H]3N(C)C2)CCCCNC(=O)[C@H](Cc2ccc(O)cc2)NC1=O (stereo partly drawn) [Compound 16, Dop1(SO)-Lys[Dop1(SO)]-psi(CH2NH)-cyclo(DLys-Arg-Phe-4Pal-DTrp-Lys-Thr-Tyr)]
Ki (hDRD2 [1]): 22.5 ± 1.9 nM
EC50 (hDRD2 [2]): 4.7 ± 0.5 nM
Emax (hDRD2 [2]): 95.2 ± 1.7%
EC50 (hSSTR2 [3]): 6 ± 0.8 nM
Ki (hSSTR2 [4]): 0.04 ± 0.03 nM

C[C@@H](O)[C@@H]1NC(=O)[C@H](CCCCN)NC(=O)[C@@H](Cc2c[nH]c3ccccc23)NC(=O)[C@H](Cc2ccccc2)NC(=O)[C@H](Cc2ccccc2)NC(=O)[C@H](CCCNC(=N)N)NC(=O)[C@H](N(CCSC[C@@H]2C[C@@H]3c4cccc5[nH]cc(c45)C[C@H]3N(C)C2)CCSC[C@@H]2C[C@@H]3c4cccc5[nH]cc(c45)C[C@H]3N(C)C2)CCCCNC(=O)[C@H](Cc2ccc(F)cc2)NC1=O [Compound 39, bis[Dop1-psi(CH2N)]-cyclo(DLys-Arg-Phe-Phe-DTrp-Lys-Thr-4FPhe)] (RFF[dW]KT[Phe(4-F)]; linker N-C via X1)
Ki (hDRD2 [1]): 330 ± 59.5 nM
EC50 (hDRD2 [2]): 114 ± 24.4 nM
Emax (hDRD2 [2]): 95.7 ± 2.4%
EC50 (hSSTR2 [3]): 25.9 ± 6.9 nM
Ki (hSSTR2 [4]): 3.72 ± 2.01 nM

CC(=O)N(CCCNC[C@@H]1C[C@@H]2c3cccc4[nH]cc(c34)C[C@H]2N(C)C1)[C@@H]1CCCCNC(=O)[C@H](Cc2ccc(F)cc2)NC(=O)[C@H]([C@@H](C)O)NC(=O)[C@H](CCCCN)NC(=O)[C@@H](Cc2c[nH]c3ccccc23)NC(=O)[C@H](Cc2ccccc2)NC(=O)[C@H](Cc2ccccc2)NC(=O)[C@H](CCCNC(=N)N)NC1=O [Compound 22, 3-[N-(D-6-methyl-8β-ergolinylmethyl)]-aminopropionyl-psi(CH2NAc)-cyclo(DLys-Arg-Phe-Phe-DTrp-Lys-Thr-4FPhe)]
Ki (hDRD2 [1]): 200 ± 65 nM
EC50 (hDRD2 [2]): 513 ± 129 nM
Emax (hDRD2 [2]): 38.7 ± 8.8%
EC50 (hSSTR2 [3]): 27.5 ± 6.7 nM
Ki (hSSTR2 [4]): 0.35 ± 0.18 nM

C[C@@H](O)[C@@H]1NC(=O)[C@H](CCCCN)NC(=O)[C@@H](Cc2c[nH]c3ccccc23)NC(=O)[C@H](Cc2ccccc2)NC(=O)[C@H](Cc2ccccc2)NC(=O)[C@H](CCCNC(=N)N)NC(=O)[C@H](NCCCCC[C@@H]2C[C@@H]3c4cccc5[nH]cc(c45)C[C@H]3N(C)C2)CCCCNC(=O)[C@H](Cc2ccc(F)cc2)NC1=O [Compound 3, (D-6-methyl-8β-ergolinyl)-pentanoyl-psi(CH2NH)-cyclo(DLys-Arg-Phe-Phe-DTrp-Lys-Thr-4FPhe)]
Ki (hDRD2 [1]): 45.2 ± 4.9 nM
EC50 (hDRD2 [2]): 212 ± 85.6 nM
Emax (hDRD2 [2]): 84.1 ± 12.2%
EC50 (hSSTR2 [3]): 137 ± 63.8 nM
Ki (hSSTR2 [4]): 0.72 ± 0.17 nM

C[C@@H](O)[C@@H]1NC(=O)[C@H](CCCCN)NC(=O)[C@@H](Cc2c[nH]c3ccccc23)NC(=O)[C@H](Cc2ccncc2)NC(=O)[C@H](Cc2ccccc2)NC(=O)[C@H](CCCNC(=N)N)NC(=O)[C@H](NCCSC[C@@H]2C[C@@H]3c4cccc5[nH]cc(c45)C[C@H]3N(C)C2)CCCCNC(=O)[C@H](Cc2ccccc2)NC1=O [Compound 23, Dop1-psi(CH2NH)-cyclo(DLys-Arg-Phe-4Pal-DTrp-Lys-Thr-Phe)]
Ki (hDRD2 [1]): 328 ± 19.3 nM
EC50 (hDRD2 [2]): 34.2 ± 13.7 nM
Emax (hDRD2 [2]): 96.4 ± 5.3%
EC50 (hSSTR2 [3]): 2.4 ± 0.1 nM
improvement in EC50 over Reference Compound A (hSSTR2 [3]; p value (Student's t-test, one-tailed) < 0.05, receptor not named): statistically significant improvement in EC50
Ki (hSSTR2 [4]): 0.09 nM

C[C@@H](O)[C@@H]1NC(=O)[C@H](CCCCN)NC(=O)[C@@H](Cc2c[nH]c3ccccc23)NC(=O)[C@H](Cc2ccccc2)NC(=O)[C@H](Cc2ccccc2)NC(=O)[C@H](CCCNC(=N)N)NC(=O)[C@H](NCCSC[C@@H]2C[C@@H]3c4cccc5[nH]cc(c45)C[C@H]3N(C)C2)CCCCNC(=O)[C@H](Cc2c(F)c(F)c(F)c(F)c2F)NC1=O [Compound 6E, Dop1-psi(CH2NH)-cyclo(DLys-Arg-Phe-Phe-DTrp-Lys-Thr-2,3,4,5,6FPhe)]
Ki (hDRD2 [1]): 40.4 ± 13.2 nM
EC50 (hDRD2 [2]): 480 ± 125 nM
Emax (hDRD2 [2]): 54.1 ± 20.6%
EC50 (hSSTR2 [3]): 223 ± 13.7 nM
Ki (hSSTR2 [4]): 5.48 ± 3.38 nM

Reference: patent EP2914280B1, “SOMATOSTATIN-DOPAMINE CHIMERIC ANALOGS” (IPSEN PHARMA S.A.S., priority 2012, dated 2014)
